According to US20070028400A1, “Skin and/or hair treatment agent containing tetrasubstituted cyclohexene compounds” (priority 2003, published 2007):

Test system: primary normal human melanocytes
Experiment: Melanogenesis assay (C14-tyrosine incorporation), 3 days incubation
Type: cell-based
Conditions: measured as C14-tyrosine incorporation, n=3
Method: By way of example, the test for the compound acetyl-retinyliminoethanol is given.
A melanogenesis assay was carried out after incubation for 3 days of primary normal human melanocytes with test substance compared to control. The numbers given in the table indicate the melanogenesis rates based on the untreated control (=100%) (measured as C14-tyrosine incorporation).

CC(=O)OCC/N=C/C=C(C)/C=C/C=C(C)/C=C/C1=C(C)CCCC1(C)C [acetyl-retinyliminoethanol, 2-{[(1E,2E,4E,6E,8E)-3,7-dimethyl-9-(2,6,6-trimethylcyclohex-1-en-1-yl)nona-2,4,6,8-tetraen-1-ylidene]amino}ethyl acetate]
melanogenesis rate based on the untreated control (=100%), Average (0.1 μg/ml test substance): 117%
melanogenesis rate based on the untreated control (=100%), Average (1 μg/ml test substance): 253%
